In ChEMBL document CHEMBL4330117, “Synthesis, biological evaluation and molecular docking of benzimidazole grafted benzsulfamide-containing pyrazole ring derivatives as novel tubulin polymerization inhibitors” (Bioorg Med Chem, 2019):
pIC50: −log10 of the molar value.

Experiments:
[1] = system: MCF7; assay: Antiproliferative activity against human MCF7 cells after 24 hrs by MTT assay; assay type: functional, cell-based; conditions: MCF7, 24 h
[2] = system: HeLa; assay: Antiproliferative activity against human HeLa cells after 24 hrs by MTT assay; assay type: functional, cell-based
[3] = Cytotoxicity against mouse primary hepatocytes after 24 hrs by MTT assay; assay type: cell-based, Hepatocyte
[4] = target: T1, Tubulin (Bos taurus) (UniProt Q6B856+Q862L2+Q862F3); assay: Inhibition of [3H]colchicine binding to bovine brain tubulin at 5 uM
[5] = system: HepG2; assay: Antiproliferative activity against human HepG2 cells after 24 hrs by MTT assay; assay type: functional, cell-based; conditions: HepG2, 24 h
[6] = system: A549; assay: Antiproliferative activity against human A549 cells after 24 hrs by MTT assay; assay type: functional, cell-based; conditions: A549, 24 h
[7] = Cytotoxicity against HEK293T cells after 24 hrs by MTT assay; assay type: cell-based, HEK-293T; conditions: human
[8] = target: T1, Tubulin (Bos taurus); assay: Inhibition of vinblastine binding to bovine brain tubulin at 5 uM

Row | pIC50 [1] | pIC50 [2] | inhibition [4] [%] | pIC50 [5] | pIC50 [6] | inhibition [8] [%] | SMILES | CC50 at 24 h [3] [µM] | CC50 at 24 h [7] [µM]
1 | 6.16 | 6.17 | 62 | 6.14 | 6.26 | 0.05 | O=S(=O)(c1ccccc1)n1c(-c2cn(-c3ccccc3)nc2-c2ccc(F)cc2)nc2ccccc21 | 231 | 96.3
2 | 5.36 | 5.51 | 40 | 5.41 | 5.59 | 0.73 | O=S(=O)(c1ccc(Cl)cc1)n1c(-c2cn(-c3ccccc3)nc2-c2ccc(C(F)(F)F)cc2)nc2ccccc21 | 173 | 75.3
3 | 5.30 | 5.46 | 48 | 5.37 | 5.50 | -2.09 to 2.7 | O=S(=O)(c1ccc(Cl)cc1)n1c(-c2cn(-c3ccccc3)nc2-c2ccc(F)cc2)nc2ccccc21 | 231 | 93.1
4 | 6.38 | 6.60 | 85 | 6.43 | 6.77 | 0.03 | COc1ccc(S(=O)(=O)n2c(-c3cn(-c4ccccc4)nc3-c3ccc(C(F)(F)F)cc3)nc3ccccc32)cc1 | 87.4 | > 300
5 | 6.37 | 6.49 | 88 | 6.39 | 6.70 | 0.62 | Cc1ccc(C)c(S(=O)(=O)n2c(-c3cn(-c4ccccc4)nc3-c3ccc(F)cc3)nc3ccccc32)c1 | 122 | 54.2
6 | 5.95 | 6.02 | 63 | 5.97 | 6.10 | 0.14 | O=[N+]([O-])c1ccc(S(=O)(=O)n2c(-c3cn(-c4ccccc4)nc3-c3ccc(C(F)(F)F)cc3)nc3ccccc32)cc1 | 178 | 163
7 | 6.24 | 6.32 | 66 | 6.28 | 6.34 | 0.18 | Cc1ccc(-c2nn(-c3ccccc3)cc2-c2nc3ccccc3n2S(=O)(=O)c2ccc(C)cc2)cc1 | 102 | 79.3
8 | 5.91 | 6.01 | 54 | 5.95 | 6.07 | 0.05 | O=S(=O)(c1ccc(C(F)(F)F)cc1)n1c(-c2cn(-c3ccccc3)nc2-c2ccc(C(F)(F)F)cc2)nc2ccccc21 | 137 | 63.2
9 | 5.44 | 5.61 | 48 | 5.45 | 5.63 | 1.32 | O=S(=O)(c1ccc(F)cc1)n1c(-c2cn(-c3ccccc3)nc2-c2ccc(F)cc2)nc2ccccc21 | 174 | 218
10 | 5.50 | 5.63 | 48 | 5.52 | 5.73 | -0.38 to 1.4 | Cc1ccc(-c2nn(-c3ccccc3)cc2-c2nc3ccccc3n2S(=O)(=O)c2ccc(Br)cc2)cc1 | > 300 | 159
11 | 5.58 | 5.69 | 51 | 5.59 | 5.76 | 3.02 | O=S(=O)(c1ccc(Br)cc1)n1c(-c2cn(-c3ccccc3)nc2-c2ccc(F)cc2)nc2ccccc21 | > 300 | 239
12 | 5.20 | 5.33 | 44 | 5.22 | 5.44 | -0.03 to 2.1 | FC(F)(F)c1ccc(-c2nn(-c3ccccc3)cc2-c2nc3ccccc3[nH]2)cc1 | 159 | 167
13 | 5.80 | 5.84 | 50 | 5.77 | 5.89 | 0.51 | O=S(=O)(c1ccc(C(F)(F)F)cc1)n1c(-c2cn(-c3ccccc3)nc2-c2ccc(F)cc2)nc2ccccc21 | 55.3 | 241
14 | 6.29 | 6.43 | 82 | 6.34 | 6.57 | 0.07 | Cc1ccc(-c2nn(-c3ccccc3)cc2-c2nc3ccccc3n2S(=O)(=O)c2cc(C)ccc2C)cc1 | 231 | 82.2
15 | 5.14 | 5.31 | 40 | 5.20 | 5.40 | 0.05 | Cc1ccc(-c2nn(-c3ccccc3)cc2-c2nc3ccccc3[nH]2)cc1 | > 300 | 187
16 | 5.28 | 5.44 | 53 | 5.30 | 5.49 | 0.07 | Cc1ccc(-c2nn(-c3ccccc3)cc2-c2nc3ccccc3n2S(=O)(=O)c2ccc(F)cc2)cc1 | 167 | 128
17 | 6.08 | 6.09 | 74 | 6.02 | 6.12 | 0.21 | Cc1ccc(-c2nn(-c3ccccc3)cc2-c2nc3ccccc3n2S(=O)(=O)c2ccccc2)cc1 | 189 | 138
18 | 5.86 | 5.93 | 51 | 5.87 | 5.99 | -0.04 to 0.3 | O=[N+]([O-])c1ccc(S(=O)(=O)n2c(-c3cn(-c4ccccc4)nc3-c3ccc(F)cc3)nc3ccccc32)cc1 | > 300 | 189
19 | 5.51 | 5.66 | 54 | 5.56 | 5.76 | 0.65 | O=S(=O)(c1ccc(F)cc1)n1c(-c2cn(-c3ccccc3)nc2-c2ccc(C(F)(F)F)cc2)nc2ccccc21 | 83.3 | 157
20 | 5.61 | 5.73 | 52 | 5.67 | 5.77 | -0.07 to 2.1 | O=S(=O)(c1ccc(Br)cc1)n1c(-c2cn(-c3ccccc3)nc2-c2ccc(C(F)(F)F)cc2)nc2ccccc21 | 167 | 185
21 | 5.63 | 5.82 | 55 | 5.71 | 5.84 | 0.21 | Cc1ccc(-c2nn(-c3ccccc3)cc2-c2nc3ccccc3n2S(=O)(=O)c2ccc(C(F)(F)F)cc2)cc1 | 89.3 | 182
22 | 6.28 | 6.41 | 77 | 6.33 | 6.46 | 2.98 | COc1ccc(S(=O)(=O)n2c(-c3cn(-c4ccccc4)nc3-c3ccc(F)cc3)nc3ccccc32)cc1 | 105 | 37.3
23 | 5.23 | 5.39 | 38 | 5.26 | 5.45 | 0.24 | Cc1ccc(-c2nn(-c3ccccc3)cc2-c2nc3ccccc3n2S(=O)(=O)c2ccc(Cl)cc2)cc1 | 216 | 167

Row | SMILES | pIC50 [1] | pIC50 [2] | inhibition [4] [%] | pIC50 [5] | pIC50 [6] | inhibition [8] [%] | CC50 at 24 h [3] [µM] | CC50 at 24 h [7] [µM]
24 | COc1cc2c(c(OC)c1OC)-c1ccc(OC)c(=O)cc1[C@@H](NC(C)=O)CC2 [COLCHICINE] | 6.36 | 6.44 | – | 6.38 | 6.66 | – | 153 | 129
